# Assay results published in US7498441B2, “Biaryltetrahydroisoquinoline piperidines as selective MCH receptor antagonists for the treatment of obesity and related disorders” (Schering Corporation, priority 2003, dated 2009).
# Molecular target: T1, MCH receptor (Homo sapiens, UniProt Q99705)
# T1 construct: expressed in transfected cells; host or cells: CHO cells
# Experiment: MCH Receptor Binding Assay ([125I]-MCH, SPA, membranes from CHO cells expressing the MCH receptor)
# Conditions: MCH Receptor Activity (Preferred Compounds); dissociation constants; read-out: Ave KiMCH
# Method: Membranes from CHO cells expressing the MCH receptor were prepared by lysing cells with 5 mM HEPES for 15 min at 4 C. Cell lysates were centrifuged ([…], 15 min) and the pellet was resuspended in 5 mM HEPES. For each 96-well plate (Microlite, Dynex Technologies), 1 mg of cell membranes were incubated with 10 mg of wheat germ agglutinin SPA beads (Amersham) for 5 min at 4 C in a volume of 10 ml of binding buffer (25 mM HEPES, 10 mM MGCl2, 10 mM NaCl, 5 mM MnCl2, 0.1% BSA). The membrane/bead mixture was centrifuged (1500×g, 3.5 min), the supernatant was aspirated, and the pellet was resuspended in 10 ml binding buffer. The centrifugation, aspiration and resuspension were then repeated. The membrane/bead mixture (100 μl) was then added to 96-well plates containing 50 μl of 500 pM [^125I]-MCH (NEN) and […] of the appropriate concentration of compound (4× the desired final concentration). Nonspecific binding was determined by including 1 μM MCH in the binding reaction. The binding reaction was incubated at room temperature for 2 h. Plates were then analyzed in a TOPCOUNT microplate scintillation counter (Packard). Data was analyzed and Ki values for the compounds of Formula 1 were determined using GraphPad Prim.
# T1 sequence (Q99705 whole entry): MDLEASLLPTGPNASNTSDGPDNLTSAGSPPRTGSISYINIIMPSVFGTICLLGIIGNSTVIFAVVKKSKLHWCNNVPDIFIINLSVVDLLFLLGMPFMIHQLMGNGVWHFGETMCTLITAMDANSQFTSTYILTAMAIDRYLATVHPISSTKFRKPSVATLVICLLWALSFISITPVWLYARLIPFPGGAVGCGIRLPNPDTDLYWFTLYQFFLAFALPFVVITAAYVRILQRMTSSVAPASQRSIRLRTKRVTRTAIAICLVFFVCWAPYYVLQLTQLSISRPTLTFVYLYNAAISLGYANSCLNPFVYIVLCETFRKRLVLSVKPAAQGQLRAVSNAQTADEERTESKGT
row,Ki,Structure (SMILES)
1,11.2 nM,N#Cc1cccc(-c2ccc3c(c2)CCN(CC(=O)Nc2cc(Cl)cc(Cl)c2)C3C2CCN(C3CCCC3)CC2)c1 (stereo not shown) [Example 1]
2,24 nM,O=C(CN1CCc2cc(-c3ccncc3)ccc2C1C1CCN(C2CCCC2)CC1)Nc1cc(Cl)cc(Cl)c1 (stereo not shown) [Example 12]
3,23 nM,O=C(CN1CCc2cc(-c3cccnc3)ccc2C1C1CCN(C2CCCC2)CC1)Nc1cc(Cl)cc(Cl)c1 (stereo not shown) [Example 16]
4,22 nM,CN1CCC(C2c3ccc(-c4cccc(C#N)c4)cc3CCN2CC(=O)Nc2cc(Cl)cc(Cl)c2)CC1 (stereo not shown) [Example 17]
5,23 nM,N#Cc1cccc(-c2ccc3c(c2)CCN(CC(=O)Nc2cc(Cl)cc(Cl)c2)C3C2CCN(Cc3ccccc3)CC2)c1 (stereo not shown) [Example 19]
6,26 nM,N#Cc1cccc(-c2ccc3c(c2)CCN(CC(=O)Nc2cc(Cl)cc(Cl)c2)C3C2CCNCC2)c1 (stereo not shown) [Example 20]
7,6.8 nM,N#Cc1cccc(-c2ccc3c(c2)CCN(CC(=O)Nc2cc(Cl)cc(Cl)c2)C3C2CCN(CCCCCO)CC2)c1 (stereo not shown) [Example 21]
8,10 nM,N#Cc1cccc(-c2ccc3c(c2)CCN(CC(=O)Nc2cc(Cl)cc(Cl)c2)C3C2CCN(C3CCCCCC3)CC2)c1 (stereo not shown) [Example 22]
9,6.4 nM,N#Cc1cccc(-c2ccc3c(c2)CCN(CC(=O)Nc2cc(Cl)cc(Cl)c2)C3C2CCN(C3CCOCC3)CC2)c1 (stereo not shown) [Example 24]
10,7 nM,N#Cc1cccc(-c2ccc3c(c2)CCN(CC(=O)Nc2cc(Cl)cc(Cl)c2)C3C2CCN(C3CCSC3)CC2)c1 (stereo not shown) [Example 25]
11,14 nM,N#Cc1cccc(-c2ccc3c(c2)CCN(CC(=O)Nc2cc(Cl)cc(Cl)c2)C3C2CCN(Cc3ccoc3)CC2)c1 (stereo not shown) [Example 26]
12,16 nM,COc1ccccc1CN1CCC(C2c3ccc(-c4cccc(C#N)c4)cc3CCN2CC(=O)Nc2cc(Cl)cc(Cl)c2)CC1 (stereo not shown) [Example 27]
13,9.3 nM,N#Cc1cccc(-c2ccc3c(c2)CCN(CC(=O)Nc2cc(Cl)cc(Cl)c2)C3C2CCN(CC3CC3)CC2)c1 (stereo not shown) [Example 28]
14,15 nM,N#Cc1cccc(-c2ccc3c(c2)CCN(CC(=O)Nc2cc(Cl)cc(Cl)c2)C3C2CCN(C3CCC3)CC2)c1 (stereo not shown) [Example 29]
15,10 nM,N#Cc1cccc(-c2ccc3c(c2)CCN(CC(=O)Nc2cc(Cl)cc(Cl)c2)C3C2CCN(C3CCCCC3)CC2)c1 (stereo not shown) [Example 32]

# Same assay, conditions: MCH Receptor Antagonist Activity; rated A/B/C; read-out: Av. MCH Ki
row,Ki,Structure (SMILES)
1,100 to 500 nM,O=C(CN1CCc2cc(-c3cccc(C(F)(F)F)c3)ccc2C1C1CCN(C2CCCC2)CC1)Nc1cc(Cl)cc(Cl)c1 (stereo not shown) [Example 1]
2,100 to 500 nM,O=C(CN1CCc2cc(-c3ccccc3)ccc2C1C1CCN(C2CCCC2)CC1)Nc1cc(Cl)cc(Cl)c1 (stereo not shown) [Example 2]
3,100 to 500 nM,N#Cc1ccc(-c2ccc3c(c2)CCN(CC(=O)Nc2cc(Cl)cc(Cl)c2)C3C2CCN(C3CCCC3)CC2)cc1 (stereo not shown) [Example 3]
4,1 to 100 nM,O=C(CN1CCc2cc(-c3cccc(F)c3)ccc2C1C1CCN(C2CCCC2)CC1)Nc1cc(Cl)cc(Cl)c1 (stereo not shown) [Example 4]
5,1 to 100 nM,O=C(CN1CCc2cc(-c3cccc(Cl)c3)ccc2C1C1CCN(C2CCCC2)CC1)Nc1cc(Cl)cc(Cl)c1 (stereo not shown) [Example 5]
6,1 to 100 nM,COc1cccc(-c2ccc3c(c2)CCN(CC(=O)Nc2cc(Cl)cc(Cl)c2)C3C2CCN(C3CCCC3)CC2)c1 (stereo not shown) [Example 6]
7,1 to 100 nM,O=C(CN1CCc2cc(-c3cccc(OC(F)(F)F)c3)ccc2C1C1CCN(C2CCCC2)CC1)Nc1cc(Cl)cc(Cl)c1 (stereo not shown) [Example 8]
8,1 to 100 nM,O=Cc1cccc(-c2ccc3c(c2)CCN(CC(=O)Nc2cc(Cl)cc(Cl)c2)C3C2CCN(C3CCCC3)CC2)c1 (stereo not shown) [Example 9]
9,1 to 100 nM,O=C(CN1CCc2cc(-c3cc(Cl)ccc3Cl)ccc2C1C1CCN(C2CCCC2)CC1)Nc1cc(Cl)cc(Cl)c1 (stereo not shown) [Example 10]
10,100 to 500 nM,O=C(CN1CCc2cc(-c3ccsc3)ccc2C1C1CCN(C2CCCC2)CC1)Nc1cc(Cl)cc(Cl)c1 (stereo not shown) [Example 13]
11,1 to 100 nM,O=C(CN1CCc2cc(-c3cccc(-c4ncc[nH]4)c3)ccc2C1C1CCN(C2CCCC2)CC1)Nc1cc(Cl)cc(Cl)c1 (stereo not shown) [Example 14]
12,100 to 500 nM,O=C(CN1CCc2cc(-c3ccc[nH]3)ccc2C1C1CCN(C2CCCC2)CC1)Nc1cc(Cl)cc(Cl)c1 (stereo not shown) [Example 15]
13,> 500 nM,O=C(CN1CCc2cc(-c3cccc(C(=O)O)c3)ccc2C1C1CCN(C2CCCC2)CC1)Nc1cc(Cl)cc(Cl)c1 (stereo not shown) [Example 18]
14,1 to 100 nM,N#Cc1cccc(-c2ccc3c(c2)CCN(CC(=O)Nc2cc(Cl)cc(Cl)c2)C3C2CCN(Cc3ccccc3)CC2)c1 (stereo not shown) [Example 19]
15,> 500 nM,O=C(CN1CCc2cc(-c3cccc4cccnc34)ccc2C1C1CCN(C2CCCC2)CC1)Nc1cc(Cl)cc(Cl)c1 (stereo not shown) [Example 20]
16,1 to 100 nM,CN1CCC(N2CCC(C3c4ccc(-c5cccc(C#N)c5)cc4CCN3CC(=O)Nc3cc(Cl)cc(Cl)c3)CC2)CC1 (stereo not shown) [Example 23]

row,Ki,Structure (SMILES)
1,1 to 100 nM,N#Cc1cccc(-c2ccc3c(c2)CCN(CC(=O)Nc2cc(Cl)cc(Cl)c2)C3C2CCN(CCCc3ccccc3)CC2)c1 (stereo not shown) [Example 30]
2,1 to 100 nM,CC(C)N1CCC(C2c3ccc(-c4cccc(C#N)c4)cc3CCN2CC(=O)Nc2cc(Cl)cc(Cl)c2)CC1 (stereo not shown) [Example 31]
3,> 500 nM,N#Cc1cccc(-c2ccc3c(c2)CCN(CC(=O)Nc2cc(Cl)cc(Cl)c2)C3C2CCN(C(=O)C3CCCC3)CC2)c1 (stereo not shown) [Example 33]
4,100 to 500 nM,CCN(CC)C(=O)N1CCC(C2c3ccc(-c4cccc(C#N)c4)cc3CCN2CC(=O)Nc2cc(Cl)cc(Cl)c2)CC1 (stereo not shown) [Example 34]
5,> 500 nM,CC(=O)N1CCC(C2c3ccc(-c4cccc(C#N)c4)cc3CCN2CC(=O)Nc2cc(Cl)cc(Cl)c2)CC1 (stereo not shown) [Example 35]
6,> 500 nM,CS(=O)(=O)N1CCC(C2c3ccc(-c4cccc(C#N)c4)cc3CCN2CC(=O)Nc2cc(Cl)cc(Cl)c2)CC1 (stereo not shown) [Example 36]
7,100 to 500 nM,CN(C)S(=O)(=O)N1CCC(C2c3ccc(-c4cccc(C#N)c4)cc3CCN2CC(=O)Nc2cc(Cl)cc(Cl)c2)CC1 (stereo not shown) [Example 37]
8,100 to 500 nM,N#Cc1cccc(-c2ccc3c(c2)CCN(CC(=O)Nc2cc(Cl)cc(Cl)c2)C3C2CCN(Cc3nccs3)CC2)c1 (stereo not shown) [Example 38]
9,> 500 nM,CCS(=O)(=O)N1CCC(C2c3ccc(-c4cccc(C#N)c4)cc3CCN2CC(=O)Nc2cc(Cl)cc(Cl)c2)CC1 (stereo not shown) [Example 39]
10,> 500 nM,N#Cc1cccc(-c2ccc3c(c2)CCN(C(=O)Nc2cc(Cl)cc(Cl)c2)C3C2CCN(Cc3ccccc3)CC2)c1 (stereo not shown) [Example 40]
11,> 500 nM,N#Cc1cccc(-c2ccc3c(c2)CCN(C(=O)Nc2ccc(Cl)c(Cl)c2)C3C2CCN(Cc3ccccc3)CC2)c1 (stereo not shown) [Example 41]
12,100 to 500 nM,N#Cc1cccc(-c2ccc3c(c2)CCN(Cc2nc4ccccc4[nH]2)C3C2CCN(Cc3ccccc3)CC2)c1 (stereo not shown) [Example 42]
13,1 to 100 nM,N#Cc1cccc(-c2ccc3c(c2)CCN(Cc2nc4cc(Cl)c(Cl)cc4[nH]2)C3C2CCN(Cc3ccccc3)CC2)c1 (stereo not shown) [Example 43]
14,100 to 500 nM,CN1CCC(C2c3ccc(-c4cccc(C#N)c4)cc3CCN2Cc2nc3cc(Cl)c(Cl)cc3[nH]2)CC1 (stereo not shown) [Example 44]
15,1 to 100 nM,N#Cc1cccc(-c2ccc3c(c2)CCN(Cc2nc4cc(F)c(Cl)cc4[nH]2)C3C2CCN(Cc3ccccc3)CC2)c1 (stereo not shown) [Example 45]
